# Columns and labels:
# Assay type in all cases: in vivo
# [1] = system: dogs suffering behavior aberrations and/or anxiety; experiment: Example 5: behavior aberrations and anxiety, C-BARQ (canine); details: C-BARQ day 0 vs 60, SID, 0 (no improvement) to 3 (marked improvement)
# From the text: (§1) This example examines the ability of embodiments of the invention versus Clomicalm® to reduce behavior aberrations and anxiety.
# The first patient group is twenty dogs suffering behavior aberrations and/or anxiety, as determined by the canine behavioral assessment and research questionnaire (“C-BARQ”). See, e.g., P. Wiener et al., Use of questionnaire-based data to assess dog personality, 16 JOURNAL OF VETERINARY BEHAVIOR 81-85 (2016). The second patient group is twenty cats suffering behavior aberrations and/or anxiety, as determined by the feline behavioral assessment and research questionnaire (“Fe-BARQ”).
# (§2) Each group is broken into five groups of four animals. The first group receives Clomicalm® as the sole active agent; the second group receives a composition comprising HMW HA as the sole active agent; the third group receives a composition comprising CBD as the sole active agent; the fourth group receives a composition comprising HMW HA and CBD as the active agents; and the fifth group receives a composition comprising HMW HA, CBD, valerian root, and scutillaria as the active agents.
# (§3) Each composition is administered for a period of sixty (60) days, once a day (“SID”). Owners complete the species-appropriate C-BARQ or Fe-BARQ on days 0 and 60 of treatment. The results from the overall questionnaire are averaged and characterized as no improvement (score of 0), mild improvement (score of 1), moderate improvement (score of 2), or marked improvement (score of 3).
# The following canine scores are observed and the results depicted in FIG. 5a: […]
# [2] = system: dogs suffering from GI-specific inflammation; experiment: Example 3: GI-specific inflammation, owner-rated symptom reduction (canine); details: symptom reduction score 0 (no reduction) to 4 (resolution of symptoms); for Final Score: after 28 days BID
# From the text: This example examines the ability of embodiments of the invention versus Pepcid® to treat unwanted GI-specific inflammation characterized by gastritis, reflux, vomiting, diarrhea, and inappetence.
# The first patient group is twenty dogs suffering from GI-specific inflammation. The second patient group is twenty cats suffering from GI-specific inflammation. Each patient group is broken into five groups of four animals. The first groups receive Pepcid® as the sole active agent; the second groups receive a composition comprising HMW HA as the sole active agent; the third groups receive a composition comprising CBD as the sole active agent; the fourth groups receive a composition comprising HMW HA and CBD as the active agents; and the fifth groups receive a composition comprising HMW HA, CBD, and glutathione as the active agents.
# Each composition is administered for a period of twenty-eight (28) days, BID. The owner observes potential reduction of symptoms at the end of treatment and rates the reduction as no reduction (score of 0), mild reduction (score of 1), moderate reduction (score of 2), significant reduction (score of 3), or resolution of symptoms (score of 4).
# The following canine scores are observed and the results depicted in FIG. 3a: […]
# [3] = system: dogs suffering from heart failure; experiment: Example 15: heart failure in dogs (CBD Complex); details: heart failure scale 1 (few to no clinical signs) to 10 (severe); for Initial Score: day 0; for Final Score: day 90, BID
# From the text: This example examines the ability of embodiments of the invention versus enalapril to treat heart failure.
# The patient group is twenty-four dogs suffering from heart failure.
# The patient group is broken into six groups of four dogs. The first group receives enalapril as the sole active agent; the second group receives a composition comprising enalapril and Lasix®; the third group receives a composition comprising HMW HA as the sole active agent; the fourth group receives a composition comprising CBD as the sole active agent; the fifth group receives a composition comprising HMW HA and CBD Complex as the active agents; and the sixth group receives a composition comprising HMW HA, CBD Complex, liposomal CoQ10, hawthorn berry, and ginko biloba as the active agents.
# Each composition is administered for a period of ninety (90) days, BID. Each animal is evaluated on days 0 (“Initial Score”), 30, 60, and 90 (“Final Score”) of treatment. The results are averaged and characterized on a scale of 1 (few to no clinical signs of heart failure) to 10 (severe heart failure).
# [4] = system: dogs suffering behavior aberrations and/or anxiety; experiment: Example 13: behavior aberrations and anxiety, C-BARQ (canine, CBD Complex); details: C-BARQ day 0 vs 60, SID, 0 (no improvement) to 3 (marked improvement)
# From the text: as §1
# The first patient group is twenty dogs suffering behavior aberrations and/or anxiety, as determined by the canine behavioral assessment and research questionnaire (“C-BARQ”). […] The second patient group is twenty cats suffering behavior aberrations and/or anxiety, as determined by the feline behavioral assessment and research questionnaire (“Fe-BARQ”).
# as §2, with “and CBD Complex as the” for “and CBD as the”, “HMW HA, CBD Complex, valerian root,” for “HMW HA, CBD, valerian root,”
# as §3
# [5] = system: dogs suffering from osteoarthritis; experiment: Example 1: pain relief and side effects in canine osteoarthritis; details: dogs with osteoarthritis, 4 weeks of administration, group average
# From the text: This example examines the ability of various compositions to minimize pain and examines the level of adverse side effects of each composition.
# At the outset of the study, participants receive a full physical examination, including weight measurement, thigh circumference, and CBC/blood chemistries. Because osteoarthritis is not only a disease of pain, but one characterized by behavioral, appetite, anxiety/aggression, family socialization, and sleep aberrations, the pet's owners are familiarized with the pain scale (canine orthopedic index) and additional behavioral assessment log.
# The patient group is twenty-four dogs suffering from osteoarthritis, broken into eight groups of three dogs. The first group receives a control composition with no active agent; the second group receives a composition comprising HA as the sole active agent; the third group receives a composition comprising HMW HA as the sole active agent; the fourth group receives a composition comprising CBD as the sole active agent; the fifth group receives a composition comprising HA and CBD as the active agents; the sixth group receives a composition comprising HMW HA and CBD as the active agents; the seventh group receives a composition comprising Rimadyl as the active agent; and the eighth group receives a composition comprising Meloxicam as the active agent.
# Each composition is administered for a period of four (4) weeks. The owner completes the electronic log questionnaire each week. At the end of the 4-week study, participants have another full physical examination, including weight measurement, thigh circumference, and CBC/blood chemistries, with an exit interview of the owners to gain final impressions.
# Each group is evaluated for pain scores and the scores averaged. The following scores are observed and the results depicted in FIG. 1: […]
Compound,Improvement Score [1],Final Score [2],Initial Score [2],Initial Score [3],Final Score [3],Improvement Score [4],Average Pain Score [5],Average Side Effect Score [5],Average Pain Score ([5]; listed as CBD alone),Average Side Effect Score ([5]; listed as CBD alone),Average Pain Score ([5]; listed as HMW HA alone),Average Side Effect Score ([5]; listed as HMW HA alone)
"C=C(C)[C@@H]1CCC(C)=C[C@H]1c1c(O)cc(CCCCC)cc1O [CBD Alone, 2-[(1R,6R)-3-methyl-6-prop-1-en-2-ylcyclohex-2-en-1-yl]-5-pentylbenzene-1,3-diol]",2,2,0,8,4,2,19,0.5,not especially effective in reducing pain,even lower degree of adverse side effects,,
hyaluronic acid [HMW HA Alone],1,3,0,8,4,1,16,4,,,only slightly reduce pain,low degree of adverse side effects

# Reference: patent publication US20220054532A1, “VETERINARY COMPOSITIONS AND METHODS OF USE THEREFOR” (priority 2019, published 2022)
